The kinase profiling compilation of Christmann-Franck et al. (2016)

Legend:
Experiment in all cases: radiometric filter-binding kinase assay
[1] = tested on: AKT2 (human), P31751 [S474D]; conditions: ATP 50 µM
[2] = molecular target: AURKB (human) (UniProt Q96GD4); conditions: ATP 20 µM
[3] = molecular target: BRSK2 (human) (UniProt Q8IWQ3); conditions: ATP 50 µM
[4] = molecular target: BTK (human) (UniProt Q06187); conditions: ATP 50 µM
[5] = molecular target: CHEK1 (human) (UniProt O14757); conditions: ATP 20 µM
Chain of CHEK1 (human) (O14757 whole entry, looked up): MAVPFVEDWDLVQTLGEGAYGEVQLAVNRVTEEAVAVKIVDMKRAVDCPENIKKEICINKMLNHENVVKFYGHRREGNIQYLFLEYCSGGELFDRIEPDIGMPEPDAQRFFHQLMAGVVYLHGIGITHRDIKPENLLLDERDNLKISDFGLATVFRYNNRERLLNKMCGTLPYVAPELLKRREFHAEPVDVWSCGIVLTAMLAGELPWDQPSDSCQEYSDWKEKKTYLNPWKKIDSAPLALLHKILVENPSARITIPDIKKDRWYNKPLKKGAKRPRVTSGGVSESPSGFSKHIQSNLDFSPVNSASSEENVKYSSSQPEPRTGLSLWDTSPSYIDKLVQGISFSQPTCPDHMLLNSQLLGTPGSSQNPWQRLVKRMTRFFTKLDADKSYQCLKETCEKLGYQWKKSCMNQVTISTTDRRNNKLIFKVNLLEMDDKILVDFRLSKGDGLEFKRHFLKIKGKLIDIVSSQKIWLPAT

[6] = molecular target: EEF2K (human) (UniProt O00418); conditions: ATP 5 µM
Chain of EEF2K (human) (O00418 whole entry, looked up): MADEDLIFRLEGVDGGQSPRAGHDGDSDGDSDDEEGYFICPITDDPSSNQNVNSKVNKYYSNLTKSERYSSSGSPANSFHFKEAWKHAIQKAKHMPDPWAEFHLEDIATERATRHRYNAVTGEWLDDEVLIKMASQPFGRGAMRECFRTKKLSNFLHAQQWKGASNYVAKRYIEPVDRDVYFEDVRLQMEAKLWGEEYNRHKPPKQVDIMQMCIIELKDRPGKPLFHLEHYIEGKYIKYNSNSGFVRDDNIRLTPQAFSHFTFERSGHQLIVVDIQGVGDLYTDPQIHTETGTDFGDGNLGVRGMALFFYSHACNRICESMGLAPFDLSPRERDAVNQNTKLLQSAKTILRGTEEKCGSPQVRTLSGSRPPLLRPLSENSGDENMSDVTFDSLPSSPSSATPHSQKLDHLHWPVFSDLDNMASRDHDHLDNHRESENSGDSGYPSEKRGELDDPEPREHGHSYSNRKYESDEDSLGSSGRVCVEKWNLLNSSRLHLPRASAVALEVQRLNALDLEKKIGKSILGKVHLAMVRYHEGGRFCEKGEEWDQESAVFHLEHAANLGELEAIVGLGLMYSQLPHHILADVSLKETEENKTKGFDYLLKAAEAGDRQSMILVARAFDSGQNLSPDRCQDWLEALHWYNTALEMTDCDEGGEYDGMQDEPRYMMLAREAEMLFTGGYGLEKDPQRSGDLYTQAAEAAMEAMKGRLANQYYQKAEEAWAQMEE

[7] = molecular target: FGFR1 (human) (UniProt P11362); conditions: ATP 20 µM
[8] = molecular target: IGF1R (human) (UniProt P08069); conditions: ATP 5 µM
[9] = molecular target: INSR (human) (UniProt P06213); conditions: ATP 20 µM
[10] = molecular target: MAP2K1 (human) (UniProt Q02750); conditions: ATP 5 µM
[11] = molecular target: MAPK13 (human) (UniProt O15264); conditions: ATP 5 µM
[12] = molecular target: MAPK3 (human) (UniProt P27361); conditions: ATP 5 µM
Chain of MAPK3 (human) (P27361 whole entry, looked up): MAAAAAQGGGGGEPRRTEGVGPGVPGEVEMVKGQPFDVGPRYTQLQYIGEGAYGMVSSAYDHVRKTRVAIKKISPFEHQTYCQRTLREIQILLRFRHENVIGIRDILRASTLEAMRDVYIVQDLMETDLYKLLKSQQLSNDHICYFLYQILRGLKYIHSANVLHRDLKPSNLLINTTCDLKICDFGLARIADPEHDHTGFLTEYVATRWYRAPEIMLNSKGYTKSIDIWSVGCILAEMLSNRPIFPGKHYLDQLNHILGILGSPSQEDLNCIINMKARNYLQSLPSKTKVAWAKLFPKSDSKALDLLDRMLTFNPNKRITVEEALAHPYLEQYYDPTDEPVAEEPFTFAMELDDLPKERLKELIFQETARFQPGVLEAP

[13] = molecular target: MAPK9 (human) (UniProt P45984); conditions: ATP 20 µM
[14] = molecular target: MAPKAPK2 (human) (UniProt P49137); conditions: ATP 20 µM
Chain of MAPKAPK2 (human) (P49137 whole entry, looked up): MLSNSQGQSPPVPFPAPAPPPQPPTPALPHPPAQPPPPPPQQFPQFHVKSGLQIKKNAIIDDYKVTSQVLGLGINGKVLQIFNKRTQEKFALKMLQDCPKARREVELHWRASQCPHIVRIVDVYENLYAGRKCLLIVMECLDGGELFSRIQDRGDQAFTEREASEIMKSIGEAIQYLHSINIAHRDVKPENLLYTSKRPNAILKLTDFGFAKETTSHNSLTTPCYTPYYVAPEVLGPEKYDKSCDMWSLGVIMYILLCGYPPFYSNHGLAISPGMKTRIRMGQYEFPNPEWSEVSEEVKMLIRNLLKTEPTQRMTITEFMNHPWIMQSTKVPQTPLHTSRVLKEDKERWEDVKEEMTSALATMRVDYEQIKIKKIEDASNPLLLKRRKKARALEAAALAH

[15] = molecular target: MKNK2 (human) (UniProt Q9HBH9); conditions: ATP 50 µM
[16] = molecular target: MYLK (human) (UniProt Q15746); conditions: ATP 50 µM
[17] = molecular target: NEK2 (human) (UniProt P51955); conditions: ATP 50 µM
Chain of NEK2 (human) (P51955 whole entry, looked up): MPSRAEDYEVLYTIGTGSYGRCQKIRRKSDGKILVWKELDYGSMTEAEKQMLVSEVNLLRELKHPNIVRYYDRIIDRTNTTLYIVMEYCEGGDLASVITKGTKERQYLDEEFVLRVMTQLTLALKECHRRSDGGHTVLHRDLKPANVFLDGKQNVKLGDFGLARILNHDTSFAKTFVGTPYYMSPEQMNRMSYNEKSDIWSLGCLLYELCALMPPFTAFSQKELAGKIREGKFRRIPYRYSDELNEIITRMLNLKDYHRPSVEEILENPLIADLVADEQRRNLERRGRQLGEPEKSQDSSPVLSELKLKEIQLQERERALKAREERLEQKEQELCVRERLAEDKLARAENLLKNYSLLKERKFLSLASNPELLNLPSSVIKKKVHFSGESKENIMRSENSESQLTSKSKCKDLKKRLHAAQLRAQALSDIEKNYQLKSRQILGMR

[18] = molecular target: NEK6 (human) (UniProt Q9HC98); conditions: ATP 50 µM
Chain of NEK6 (human) (Q9HC98 whole entry, looked up): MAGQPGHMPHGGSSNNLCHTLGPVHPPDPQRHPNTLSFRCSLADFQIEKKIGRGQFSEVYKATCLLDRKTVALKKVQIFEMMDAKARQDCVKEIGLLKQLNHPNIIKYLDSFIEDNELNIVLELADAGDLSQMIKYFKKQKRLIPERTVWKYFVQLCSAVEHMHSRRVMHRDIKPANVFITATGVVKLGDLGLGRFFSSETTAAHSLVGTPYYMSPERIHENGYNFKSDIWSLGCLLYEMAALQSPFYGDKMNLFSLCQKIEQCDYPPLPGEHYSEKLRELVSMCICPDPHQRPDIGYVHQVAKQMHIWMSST

[19] = molecular target: PHKG1 (human) (UniProt Q16816); conditions: ATP 50 µM
[20] = molecular target: PI4KA (human) (UniProt P42356)
[21] = molecular target: PI4KB (human) (UniProt Q9UBF8)
[22] = molecular target: PIM1 (human) (UniProt P11309); conditions: ATP 20 µM
Chain of PIM1 (human) (P11309 whole entry, looked up): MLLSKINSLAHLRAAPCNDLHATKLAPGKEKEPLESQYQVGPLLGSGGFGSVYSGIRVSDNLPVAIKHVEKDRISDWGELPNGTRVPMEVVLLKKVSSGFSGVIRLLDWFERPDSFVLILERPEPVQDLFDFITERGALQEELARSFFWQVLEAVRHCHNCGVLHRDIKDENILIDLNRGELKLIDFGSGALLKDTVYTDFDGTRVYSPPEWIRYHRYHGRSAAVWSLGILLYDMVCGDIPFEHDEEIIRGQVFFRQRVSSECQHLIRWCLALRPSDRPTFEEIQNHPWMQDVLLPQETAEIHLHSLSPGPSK

[23] = molecular target: PIM3 (human) (UniProt Q86V86); conditions: ATP 20 µM
[24] = molecular target: PLK1 (human) (UniProt P53350); conditions: ATP 5 µM
Chain of PLK1 (human) (P53350 whole entry, looked up): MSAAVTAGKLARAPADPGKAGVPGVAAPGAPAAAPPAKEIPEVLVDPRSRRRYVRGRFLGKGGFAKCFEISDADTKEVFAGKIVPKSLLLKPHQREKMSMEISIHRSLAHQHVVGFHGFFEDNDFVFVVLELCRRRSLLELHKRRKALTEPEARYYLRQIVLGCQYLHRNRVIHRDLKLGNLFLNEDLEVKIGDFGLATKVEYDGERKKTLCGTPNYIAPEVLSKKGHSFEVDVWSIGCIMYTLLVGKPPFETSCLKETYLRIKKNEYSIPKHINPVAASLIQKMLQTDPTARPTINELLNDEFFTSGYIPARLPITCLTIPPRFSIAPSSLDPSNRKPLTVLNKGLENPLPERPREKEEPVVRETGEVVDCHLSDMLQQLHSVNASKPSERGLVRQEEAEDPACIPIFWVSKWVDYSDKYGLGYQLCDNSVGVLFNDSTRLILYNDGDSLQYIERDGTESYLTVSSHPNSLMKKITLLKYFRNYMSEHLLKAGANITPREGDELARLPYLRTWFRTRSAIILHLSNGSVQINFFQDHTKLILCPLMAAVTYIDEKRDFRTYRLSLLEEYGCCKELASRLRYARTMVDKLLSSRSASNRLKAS

[25] = molecular target: PRKACA (human) (UniProt P17612); conditions: ATP 20 µM
[26] = tested on: ROCK2 (rat); conditions: ATP 20 µM, accession and sequence are those of the human protein
[27] = tested on: SGK1 (human), O00141 [S422D]; conditions: ATP 20 µM
[28] = molecular target: SRC (human) (UniProt P12931); conditions: ATP 50 µM
[29] = molecular target: SYK (human) (UniProt P43405); conditions: ATP 20 µM

Chain of BRSK2 (human) (Q8IWQ3 whole entry, looked up): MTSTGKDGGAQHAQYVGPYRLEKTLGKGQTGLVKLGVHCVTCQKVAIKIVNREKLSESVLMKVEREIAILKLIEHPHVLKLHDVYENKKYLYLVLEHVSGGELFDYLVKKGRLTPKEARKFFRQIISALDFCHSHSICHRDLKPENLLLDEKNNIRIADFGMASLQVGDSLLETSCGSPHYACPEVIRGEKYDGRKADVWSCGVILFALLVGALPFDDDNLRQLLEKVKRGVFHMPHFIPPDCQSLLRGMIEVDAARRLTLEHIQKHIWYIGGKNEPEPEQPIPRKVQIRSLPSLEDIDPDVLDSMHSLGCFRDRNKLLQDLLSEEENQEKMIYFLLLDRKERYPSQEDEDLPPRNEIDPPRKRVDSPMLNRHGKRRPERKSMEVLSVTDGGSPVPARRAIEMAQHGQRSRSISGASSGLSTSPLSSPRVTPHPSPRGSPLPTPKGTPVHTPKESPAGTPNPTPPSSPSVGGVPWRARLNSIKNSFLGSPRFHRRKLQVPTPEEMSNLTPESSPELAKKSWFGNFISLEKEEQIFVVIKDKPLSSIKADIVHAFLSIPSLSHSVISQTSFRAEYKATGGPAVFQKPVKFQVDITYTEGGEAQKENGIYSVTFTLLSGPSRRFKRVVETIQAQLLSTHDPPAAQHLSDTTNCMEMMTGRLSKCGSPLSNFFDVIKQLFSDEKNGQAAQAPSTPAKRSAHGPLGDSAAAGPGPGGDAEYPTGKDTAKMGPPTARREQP

## CCc1cncnc1N1CCN(Cc2nc3cc(C(F)(F)F)ccc3[nH]2)CC1
[1]; compound 0.1 µM
  residual activity: 74%
[1]; compound 1.0 µM
  residual activity: 73%
[1]; compound 10.0 µM
  residual activity: 60%
[2]; compound 0.1 µM
  residual activity: 89%
[2]; compound 1.0 µM
  residual activity: 87%
[2]; compound 10.0 µM
  residual activity: 49%
[3]; compound 0.1 µM
  residual activity: 88%
[3]; compound 1.0 µM
  residual activity: 84%
[3]; compound 10.0 µM
  residual activity: 83%
[4]; compound 0.1 µM
  residual activity: 83%
[4]; compound 1.0 µM
  residual activity: 87%
[4]; compound 10.0 µM
  residual activity: 92%
[5]; compound 0.1 µM
  residual activity: 90%
[5]; compound 1.0 µM
  residual activity: 83%
[5]; compound 10.0 µM
  residual activity: 83%
[6]; compound 0.1 µM
  residual activity: 90%
[6]; compound 1.0 µM
  residual activity: 73%
[6]; compound 10.0 µM
  residual activity: 78%
[7]; compound 0.1 µM
  residual activity: 91%
[7]; compound 1.0 µM
  residual activity: 92%
[7]; compound 10.0 µM
  residual activity: 63%
[8]; compound 0.1 µM
  residual activity: 72%
[8]; compound 1.0 µM
  residual activity: 95%
[8]; compound 10.0 µM
  residual activity: 82%
[9]; compound 0.1 µM
  residual activity: 108%
[9]; compound 1.0 µM
  residual activity: 95%
[9]; compound 10.0 µM
  residual activity: 96%
[10]; compound 0.1 µM
  residual activity: 117%
[10]; compound 1.0 µM
  residual activity: 104%
[10]; compound 10.0 µM
  residual activity: 96%
[11]; compound 0.1 µM
  residual activity: 89%
[11]; compound 1.0 µM
  residual activity: 82%
[11]; compound 10.0 µM
  residual activity: 91%
[12]; compound 0.1 µM
  residual activity: 93%
[12]; compound 1.0 µM
  residual activity: 85%
[12]; compound 10.0 µM
  residual activity: 83%
[13]; compound 0.1 µM
  residual activity: 92%
[13]; compound 1.0 µM
  residual activity: 93%
[13]; compound 10.0 µM
  residual activity: 98%
[14]; compound 0.1 µM
  residual activity: 88%
[14]; compound 1.0 µM
  residual activity: 105%
[14]; compound 10.0 µM
  residual activity: 78%
[15]; compound 0.1 µM
  residual activity: 92%
[15]; compound 1.0 µM
  residual activity: 93%
[15]; compound 10.0 µM
  residual activity: 79%
[16]; compound 0.1 µM
  residual activity: 95%
[16]; compound 1.0 µM
  residual activity: 79%
[16]; compound 10.0 µM
  residual activity: 87%
[17]; compound 0.1 µM
  residual activity: 95%
[17]; compound 1.0 µM
  residual activity: 94%
[17]; compound 10.0 µM
  residual activity: 91%
[18]; compound 0.1 µM
  residual activity: 88%
[18]; compound 1.0 µM
  residual activity: 75%
[18]; compound 10.0 µM
  residual activity: 80%
[19]; compound 0.1 µM
  residual activity: 100%
[19]; compound 1.0 µM
  residual activity: 96%
[19]; compound 10.0 µM
  residual activity: 104%
[20]; compound 1.0 µM
  residual activity: 106%
[20]; compound 10.0 µM
  residual activity: 102%
[21]; compound 1.0 µM
  residual activity: 103%
[21]; compound 10.0 µM
  residual activity: 99%
[22]; compound 0.1 µM
  residual activity: 88%
[22]; compound 1.0 µM
  residual activity: 90%
[22]; compound 10.0 µM
  residual activity: 78%
[23]; compound 0.1 µM
  residual activity: 93%
[23]; compound 1.0 µM
  residual activity: 88%
[23]; compound 10.0 µM
  residual activity: 83%
[24]; compound 0.1 µM
  residual activity: 98%
[24]; compound 1.0 µM
  residual activity: 87%
[24]; compound 10.0 µM
  residual activity: 88%
[25]; compound 0.1 µM
  residual activity: 84%
[25]; compound 1.0 µM
  residual activity: 83%
[25]; compound 10.0 µM
  residual activity: 34%
[26]; compound 0.1 µM
  residual activity: 98%
[26]; compound 1.0 µM
  residual activity: 91%
[26]; compound 10.0 µM
  residual activity: 58%
[27]; compound 0.1 µM
  residual activity: 106%
[27]; compound 1.0 µM
  residual activity: 74%
[27]; compound 10.0 µM
  residual activity: 65%
[28]; compound 0.1 µM
  residual activity: 103%
[28]; compound 1.0 µM
  residual activity: 99%
[28]; compound 10.0 µM
  residual activity: 92%
[29]; compound 0.1 µM
  residual activity: 121%
[29]; compound 1.0 µM
  residual activity: 100%
[29]; compound 10.0 µM
  residual activity: 91%
